In patent US20260198493A1, “HYDRAZIDE COMPOUND AND AGRICULTURAL/HORTICULTURAL FUNGICIDE” (Nippon Soda Co., Ltd., priority 2022, published 2026):

Legend:
Fusarium graminearum = assay: microbe, parasite or virus in culture; type: cell-based; conditions: 96 h, read-out: growth inhibition ratio
Botrytis cinerea [1] = assay: Control test of cucumber gray mold (sprayed young cucumber seedlings); type: in vivo; conditions: 96 h, four days after inoculation; for pest or weed control at 25 ppm: 25 ppm by mass spray; for pest or weed control at 125 ppm: 125 ppm by mass spray
Experimental: Then, the drug liquid was sprayed onto young cucumber seedlings cultivated in a nursery pot (variety “Jihai”-based, cotyledon stage), and then air-dried. […] They were left still in a moist room at 20° C. Four days after inoculation, leaves of the young cucumber seedlings were visually observed, and the control value was calculated from the lesion area ratio in accordance with the following equation. [formula]

Venturia inaequalis = assay: Control test of apple scab disease (sprayed young apple seedlings); type: in vivo; conditions: 125 ppm by mass spray, 12 to 14 days after inoculation
[2] = system: Erysiphe graminis f.sp.tritici; assay: Control test of wheat powdery mildew disease (sprayed young wheat seedlings); type: in vivo; conditions: Blumeria graminis, 144 h, 125 ppm by mass spray, six days after inoculation
Botrytis cinerea [3] = type: cell-based; conditions: 120 h, 25 ppm by volume, Vogel medium, 20° C., five days, dark, read-out: growth inhibition ratio
Colletotrichum acutatum = assay: Fungicidal effect test against fungi causing apple anthracnose; conditions: 96 h, read-out: growth inhibition ratio
Glomerella cingulata = assay: Fungicidal effect test against fungi causing grape ripe rot disease; conditions: Colletotrichum gloeosporioides, 72 h, read-out: growth inhibition ratio

COC(=O)N(Cc1ccc(C)cc1C)NC(=O)c1cc(C)nnc1Oc1cccc(C2CC2)c1F [b-6, Methyl 2-(3-(3-cyclopropyl-2-fluorophenoxy)-6-methylpyridazine-4-carbonyl)-1-(2,4-dimethylbenzyl)hydrazine-1-carboxylate]
≥ 75%: inhibition of growth at 25 ppm (Fusarium graminearum) | pest or weed control at 25 ppm (Botrytis cinerea [1]) | pest or weed control at 125 ppm (Botrytis cinerea [1]) | pest or weed control at 125 ppm (Venturia inaequalis) | pest or weed control at 125 ppm [2]

COC(=O)N(Cc1ccc(C)cc1C)NC(=O)c1c(Oc2cccc(C3CC3)c2F)nnc(Cl)c1C [b-15]
≥ 75%: inhibition of growth at 25 ppm (Botrytis cinerea [3]) | inhibition of growth at 25 ppm (Fusarium graminearum) | pest or weed control at 25 ppm (Botrytis cinerea [1]) | pest or weed control at 125 ppm (Botrytis cinerea [1]) | pest or weed control at 125 ppm (Venturia inaequalis) | pest or weed control at 125 ppm [2] | inhibition of growth at 25 ppm (Colletotrichum acutatum) | inhibition of growth at 25 ppm (Glomerella cingulata)

COC(=O)N(Cc1ccc(C)cc1C)NC(=O)c1cc(C)ncc1Oc1cccc(C2CC2)c1F [b-16]
≥ 75%: inhibition of growth at 25 ppm (Botrytis cinerea [3]) | inhibition of growth at 25 ppm (Fusarium graminearum) | pest or weed control at 25 ppm (Botrytis cinerea [1]) | pest or weed control at 125 ppm (Botrytis cinerea [1]) | pest or weed control at 125 ppm (Venturia inaequalis) | pest or weed control at 125 ppm [2] | inhibition of growth at 25 ppm (Colletotrichum acutatum) | inhibition of growth at 25 ppm (Glomerella cingulata)

Cc1ccc(CN(NC(=O)c2cc(C)nnc2Oc2cccc(C3CC3)c2F)C(=O)OC(C)(C)C)c(C)c1 [b-22]
≥ 75%: inhibition of growth at 25 ppm (Botrytis cinerea [3]) | inhibition of growth at 25 ppm (Fusarium graminearum) | pest or weed control at 25 ppm (Botrytis cinerea [1]) | pest or weed control at 125 ppm (Botrytis cinerea [1]) | pest or weed control at 125 ppm (Venturia inaequalis) | pest or weed control at 125 ppm [2] | inhibition of growth at 25 ppm (Colletotrichum acutatum) | inhibition of growth at 25 ppm (Glomerella cingulata)

COC(=O)N(Cc1ccc(C)cc1C)NC(=O)c1cc(C)nnc1Oc1cccc(Cl)c1F [b-23, Methyl 2-(3-(3-chloro-2-fluorophenoxy)-6-methylpyridazine-4-carbonyl)-1-(2,4-dimethylbenzyl)hydrazine-1-carboxylate]
≥ 75%: inhibition of growth at 25 ppm (Botrytis cinerea [3]) | inhibition of growth at 25 ppm (Fusarium graminearum) | pest or weed control at 25 ppm (Botrytis cinerea [1]) | pest or weed control at 125 ppm (Botrytis cinerea [1]) | pest or weed control at 125 ppm (Venturia inaequalis) | pest or weed control at 125 ppm [2] | inhibition of growth at 25 ppm (Colletotrichum acutatum) | inhibition of growth at 25 ppm (Glomerella cingulata)

COC(=O)N(Cc1ccc(C)cc1C)NC(=O)c1cc(Cl)nnc1Oc1cccc(C2CC2)c1F [b-28]
≥ 75%: inhibition of growth at 25 ppm (Botrytis cinerea [3]) | inhibition of growth at 25 ppm (Fusarium graminearum) | pest or weed control at 25 ppm (Botrytis cinerea [1]) | pest or weed control at 125 ppm (Botrytis cinerea [1]) | pest or weed control at 125 ppm (Venturia inaequalis) | pest or weed control at 125 ppm [2] | inhibition of growth at 25 ppm (Colletotrichum acutatum) | inhibition of growth at 25 ppm (Glomerella cingulata)

COC(=O)N(Cc1ccc(C)cc1C)NC(=O)c1cc(C)ncc1Oc1cccc(Br)c1 [b-31]
≥ 75%: inhibition of growth at 25 ppm (Botrytis cinerea [3]) | inhibition of growth at 25 ppm (Fusarium graminearum) | pest or weed control at 25 ppm (Botrytis cinerea [1]) | pest or weed control at 125 ppm (Botrytis cinerea [1]) | pest or weed control at 125 ppm (Venturia inaequalis) | pest or weed control at 125 ppm [2] | inhibition of growth at 25 ppm (Colletotrichum acutatum) | inhibition of growth at 25 ppm (Glomerella cingulata)

CCOC(=O)N(Cc1ccc(C)cc1C)NC(=O)c1cc(C)ncc1Oc1cccc(C2CC2)c1F [b-33]
≥ 75%: inhibition of growth at 25 ppm (Botrytis cinerea [3]) | inhibition of growth at 25 ppm (Fusarium graminearum) | pest or weed control at 125 ppm (Botrytis cinerea [1]) | pest or weed control at 125 ppm (Venturia inaequalis) | pest or weed control at 125 ppm [2] | inhibition of growth at 25 ppm (Colletotrichum acutatum) | inhibition of growth at 25 ppm (Glomerella cingulata)

COC(=O)N(Cc1ccc(Cl)cc1C)NC(=O)c1cc(C)nnc1Oc1cccc(C2CC2)c1F [b-34]
≥ 75%: inhibition of growth at 25 ppm (Botrytis cinerea [3]) | inhibition of growth at 25 ppm (Fusarium graminearum) | pest or weed control at 25 ppm (Botrytis cinerea [1]) | pest or weed control at 125 ppm (Botrytis cinerea [1]) | pest or weed control at 125 ppm (Venturia inaequalis) | pest or weed control at 125 ppm [2] | inhibition of growth at 25 ppm (Colletotrichum acutatum) | inhibition of growth at 25 ppm (Glomerella cingulata)

COC(=O)N(Cc1ccc(C)cc1C)NC(=O)c1cc(C)nnc1Oc1cccc(C(F)(F)F)c1F [b-36]
≥ 75%: inhibition of growth at 25 ppm (Botrytis cinerea [3]) | inhibition of growth at 25 ppm (Fusarium graminearum) | pest or weed control at 25 ppm (Botrytis cinerea [1]) | pest or weed control at 125 ppm (Botrytis cinerea [1]) | pest or weed control at 125 ppm (Venturia inaequalis) | pest or weed control at 125 ppm [2] | inhibition of growth at 25 ppm (Colletotrichum acutatum) | inhibition of growth at 25 ppm (Glomerella cingulata)

COC(=O)N(Cc1ccc(C)cc1C)NC(=O)c1cc(C)nnc1Oc1cccc(Br)c1F [b-38]
≥ 75%: inhibition of growth at 25 ppm (Botrytis cinerea [3]) | inhibition of growth at 25 ppm (Fusarium graminearum) | pest or weed control at 25 ppm (Botrytis cinerea [1]) | pest or weed control at 125 ppm (Botrytis cinerea [1]) | pest or weed control at 125 ppm (Venturia inaequalis) | pest or weed control at 125 ppm [2] | inhibition of growth at 25 ppm (Colletotrichum acutatum) | inhibition of growth at 25 ppm (Glomerella cingulata)

COC(=O)N(Cc1ccc(C)cc1C)NC(=O)c1nc(C)ncc1Oc1cccc(C2CC2)c1F [b-42, Methyl 2-(5-(3-cyclopropyl-2-fluorophenoxy)-2-methylpyrimidine-4-carbonyl)-1-(2,4-dimethylbenzyl)hydrazine-1-carboxylate]
≥ 75%: inhibition of growth at 25 ppm (Botrytis cinerea [3]) | inhibition of growth at 25 ppm (Fusarium graminearum) | pest or weed control at 25 ppm (Botrytis cinerea [1]) | pest or weed control at 125 ppm (Botrytis cinerea [1]) | pest or weed control at 125 ppm (Venturia inaequalis) | pest or weed control at 125 ppm [2] | inhibition of growth at 25 ppm (Colletotrichum acutatum) | inhibition of growth at 25 ppm (Glomerella cingulata)

CCOC(=O)N(Cc1ccc(C)cc1C)NC(=O)c1nc(C)ncc1Oc1cccc(C2CC2)c1F [b-43]
≥ 75%: inhibition of growth at 25 ppm (Botrytis cinerea [3]) | inhibition of growth at 25 ppm (Fusarium graminearum) | pest or weed control at 25 ppm (Botrytis cinerea [1]) | pest or weed control at 125 ppm (Botrytis cinerea [1]) | pest or weed control at 125 ppm (Venturia inaequalis) | pest or weed control at 125 ppm [2] | inhibition of growth at 25 ppm (Colletotrichum acutatum) | inhibition of growth at 25 ppm (Glomerella cingulata)

COC(=O)N(Cc1ccc(Br)cc1C)NC(=O)c1cc(C)nnc1Oc1cccc(C2CC2)c1F [b-45]
≥ 75%: inhibition of growth at 25 ppm (Botrytis cinerea [3]) | inhibition of growth at 25 ppm (Fusarium graminearum) | pest or weed control at 25 ppm (Botrytis cinerea [1]) | pest or weed control at 125 ppm (Botrytis cinerea [1]) | pest or weed control at 125 ppm (Venturia inaequalis) | pest or weed control at 125 ppm [2] | inhibition of growth at 25 ppm (Colletotrichum acutatum) | inhibition of growth at 25 ppm (Glomerella cingulata)

COC(=O)N(Cc1ccc(C)cc1Cl)NC(=O)c1cc(C)nnc1Oc1cccc(C2CC2)c1F [b-46]
≥ 75%: inhibition of growth at 25 ppm (Botrytis cinerea [3]) | inhibition of growth at 25 ppm (Fusarium graminearum) | pest or weed control at 25 ppm (Botrytis cinerea [1]) | pest or weed control at 125 ppm (Botrytis cinerea [1]) | pest or weed control at 125 ppm (Venturia inaequalis) | pest or weed control at 125 ppm [2] | inhibition of growth at 25 ppm (Colletotrichum acutatum) | inhibition of growth at 25 ppm (Glomerella cingulata)

COC(=O)N(Cc1ccc(C)cc1C)NC(=O)c1cc(C)nnc1Oc1cccc(C(F)(F)F)c1 [b-53]
≥ 75%: inhibition of growth at 25 ppm (Botrytis cinerea [3]) | inhibition of growth at 25 ppm (Fusarium graminearum) | pest or weed control at 25 ppm (Botrytis cinerea [1]) | pest or weed control at 125 ppm (Botrytis cinerea [1]) | pest or weed control at 125 ppm (Venturia inaequalis) | pest or weed control at 125 ppm [2] | inhibition of growth at 25 ppm (Colletotrichum acutatum) | inhibition of growth at 25 ppm (Glomerella cingulata)

COC(=O)N(Cc1ccc(C)cc1C)NC(=O)c1cc(C)nnc1Oc1cccc(Br)c1 [b-55]
≥ 75%: inhibition of growth at 25 ppm (Botrytis cinerea [3]) | inhibition of growth at 25 ppm (Fusarium graminearum) | pest or weed control at 25 ppm (Botrytis cinerea [1]) | pest or weed control at 125 ppm (Botrytis cinerea [1]) | pest or weed control at 125 ppm (Venturia inaequalis) | pest or weed control at 125 ppm [2] | inhibition of growth at 25 ppm (Colletotrichum acutatum) | inhibition of growth at 25 ppm (Glomerella cingulata)

COC(=O)N(Cc1ccc(C)cc1C)NC(=O)c1cc(Br)ncc1Oc1cccc(C2CC2)c1F [b-67]
≥ 75%: inhibition of growth at 25 ppm (Botrytis cinerea [3]) | inhibition of growth at 25 ppm (Fusarium graminearum) | pest or weed control at 25 ppm (Botrytis cinerea [1]) | pest or weed control at 125 ppm (Botrytis cinerea [1]) | pest or weed control at 125 ppm (Venturia inaequalis) | pest or weed control at 125 ppm [2] | inhibition of growth at 25 ppm (Colletotrichum acutatum) | inhibition of growth at 25 ppm (Glomerella cingulata)

COCOc1ccc(CN(NC(=O)c2cc(C)ncc2Oc2cccc(C3CC3)c2F)C(=O)OC)c(C)c1 [b-74]
≥ 75%: inhibition of growth at 25 ppm (Botrytis cinerea [3]) | inhibition of growth at 25 ppm (Fusarium graminearum) | pest or weed control at 25 ppm (Botrytis cinerea [1]) | pest or weed control at 125 ppm (Botrytis cinerea [1]) | pest or weed control at 125 ppm (Venturia inaequalis) | pest or weed control at 125 ppm [2] | inhibition of growth at 25 ppm (Colletotrichum acutatum) | inhibition of growth at 25 ppm (Glomerella cingulata)

COC(=O)N(Cc1ccc(Cl)cc1Cl)NC(=O)c1cc(C)ncc1Oc1cccc(C2CC2)c1F [b-75]
≥ 75%: inhibition of growth at 25 ppm (Botrytis cinerea [3]) | inhibition of growth at 25 ppm (Fusarium graminearum) | pest or weed control at 25 ppm (Botrytis cinerea [1]) | pest or weed control at 125 ppm (Botrytis cinerea [1]) | pest or weed control at 125 ppm (Venturia inaequalis) | pest or weed control at 125 ppm [2] | inhibition of growth at 25 ppm (Colletotrichum acutatum) | inhibition of growth at 25 ppm (Glomerella cingulata)

C#Cc1cccc(Oc2nnc(C)cc2C(=O)NN(Cc2ccc(C)cc2C)C(=O)OC)c1 [b-138]
≥ 75%: inhibition of growth at 25 ppm (Botrytis cinerea [3]) | inhibition of growth at 25 ppm (Fusarium graminearum) | pest or weed control at 25 ppm (Botrytis cinerea [1]) | pest or weed control at 125 ppm (Botrytis cinerea [1]) | pest or weed control at 125 ppm (Venturia inaequalis) | inhibition of growth at 25 ppm (Colletotrichum acutatum) | inhibition of growth at 25 ppm (Glomerella cingulata)

C=Cc1cncc(Oc2cccc(C3CC3)c2F)c1C(=O)NN(Cc1ccc(C)cc1C)C(=O)OC [b-211]
≥ 75%: inhibition of growth at 25 ppm (Botrytis cinerea [3]) | inhibition of growth at 25 ppm (Fusarium graminearum) | pest or weed control at 25 ppm (Botrytis cinerea [1]) | pest or weed control at 125 ppm (Botrytis cinerea [1]) | pest or weed control at 125 ppm [2] | inhibition of growth at 25 ppm (Colletotrichum acutatum) | inhibition of growth at 25 ppm (Glomerella cingulata)

COC(=O)N(Cc1ccc(C)cc1C)NC(=O)c1c(Oc2cccc(C3CC3)c2F)cnc2c1OC(C)(C)C=C2 [b-213, Methyl 2-(7-(3-cyclopropyl-2-fluorophenoxy)-2,2-dimethyl-2H-pyrano[3,2-b]pyridine-8-carbonyl)-1-(2,4-dimethylbenzyl)hydrazine-1-carboxylate]
≥ 75%: inhibition of growth at 25 ppm (Botrytis cinerea [3]) | inhibition of growth at 25 ppm (Fusarium graminearum) | pest or weed control at 25 ppm (Botrytis cinerea [1]) | pest or weed control at 125 ppm (Botrytis cinerea [1]) | pest or weed control at 125 ppm [2] | inhibition of growth at 25 ppm (Colletotrichum acutatum) | inhibition of growth at 25 ppm (Glomerella cingulata)
